Experimental data published in US12077607B2, “Functional and therapeutic effects of PAR4 cleavage by cathepsin G” (UNIVERSITY OF UTAH RESEARCH FOUNDATION, priority 2021, dated 2024).
Residue numbers refer to the chain shown, from its start. Entries after “also recorded” stand apart in the source; their conditions may differ.

Key:
Assay type in all cases: cell-based
mouse washed platelets = experiment: Platelet aggregation of mouse washed platelets; conditions: 1 U/mL human thrombin, 1 μM human CatG or 1 mM RA-11mer
Text: (§1) Animal studies. Mouse platelets were isolated as previously described from C57BL/6 mice (Denorme et al., Blood. 2020; 135(6):429-440). Dog platelets were isolated from whole blood drawn into ACD using a similar isolation procedure as for human platelets. All animal studies were approved by the University of Utah Institutional Animal Care and Use Committee (18-10012).
(§2) Platelet and neutrophil isolation. Platelets and neutrophils were isolated as previously described (Yost et al., J Clin Invest. 2016; 126(10):3783-3798). Platelet isolation from dogs, rats and mice was approved by the IACUC. Platelet activation and aggregation were performed as previously described (Manne et al., Blood. 2020; 136(11): 1317-1329).
(§3) Platelet isolation, aggregation, and activation. Human washed platelets were prepared and resuspended in Tyrode's Buffer at 2×10^8/mL as described (Edelstein et al., Nat Med. 2013; 19(12):1609-1616). For human and dog platelet comparisons, platelets were prepared using a modified human platelet protocol with final concentrations of […] (Cayman Chemical, Ann Arbor, MI, USA) used during centrifugation steps. Centrifugations after Tyrode's washes was decreased to 1,250×g as described in Cremer et al., PLOS One. 2019; 14(11): e0224891. Platelet aggregation was measured under stirring conditions at 37° C. using a PAP-8E aggregometer after treatment with the following agonists: arachidonic acid (Bio/Data Corporation, Horsham, PA, USA), cathepsin G, elastase, proteinase 3 (Athens Research Group), α-thrombin (Sigma, St. Louis, MO, USA), PAR-1 peptide (SFLLRN) (GL Biochem, China). P-selectin and PAC-1 were measured as previously described (Yee et al., J Thromb Haemost. 2006; 4(9):2043-2050; Tourdot et al., Arterioscler Thromb Vasc Biol. 2014; 34(12):2644-2650).

PAR4-R68E = molecular target: T1, PAR4-R68E (Homo sapiens, UniProt Q96RI0, R68E); experiment: PAR4 mutant calcium flux assay, HEK293T/17 cells, R68E; conditions: 100 nM vorapaxar
T1 construct: Flag; expressed in transfected cells; host or cells: HEK293T/17 (ATCC CRL-11268)
T1 sequence (Q96RI0 18-385 R68E): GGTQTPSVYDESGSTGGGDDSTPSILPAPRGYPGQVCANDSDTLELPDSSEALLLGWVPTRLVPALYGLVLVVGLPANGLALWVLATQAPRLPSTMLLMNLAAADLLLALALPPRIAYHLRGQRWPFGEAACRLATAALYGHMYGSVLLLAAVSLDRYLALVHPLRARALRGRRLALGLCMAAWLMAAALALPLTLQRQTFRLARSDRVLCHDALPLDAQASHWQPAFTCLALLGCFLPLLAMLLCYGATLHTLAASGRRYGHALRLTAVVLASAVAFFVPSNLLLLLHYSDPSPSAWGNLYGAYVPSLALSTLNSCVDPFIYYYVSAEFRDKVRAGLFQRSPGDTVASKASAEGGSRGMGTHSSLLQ
Method: (§4) PAR4 mutant calcium flux assays. Using Quikchange Lightning Site-Directed mutagenesis (Agilent) per manufacturing instructions, pCMV-Flag-PAR4-S66E, pCMV-Flag-PAR4-S67E, and pCMV-Flag-PAR4-R68E were generated from mutation of pCMV-Flag-PAR4 and confirmed by sequencing (University of Utah DNA Sequencing Core). Prior to transfection, HEK293T/17 cells (ATCC CRL-11268) were seeded at 4.5×10^4/mL. The following day, cells were transfected with the plasmid of interest using Lipofectamine 2000 (Invitrogen, Carlsbad, CA, USA). Twenty-four hours after transfection, media was removed and replaced with Optimem w/Glutamax (Gibco, Carlsbad, CA, USA) containing vorapaxar (100 nM) (Cayman Chemical, Ann Arbor, MI, USA) and Fura2-QBT (Molecular Devices). Following incubation for 1 hour at 37° C., plate was placed in the Flexstation 3 (Molecular Devices) where agonists, Tyrode's Buffer, cathepsin G (2.5 μM), or α-thrombin (1.5 U/mL), were injected onto cells and calcium mobilization was monitored and recorded.

PAR4-S67E = molecular target: T2, PAR4-S67E (Homo sapiens, UniProt Q96RI0, S67E); experiment: PAR4 mutant calcium flux assay, HEK293T/17 cells, S67E; conditions: 100 nM vorapaxar
T2 construct: Flag; expressed in transfected cells; host or cells: HEK293T/17 (ATCC CRL-11268)
T2 sequence (Q96RI0 18-385 S67E): T1 sequence (Q96RI0 18-385 R68E) with S50E, E51R
Method: as §4

dog washed platelets = experiment: Platelet aggregation of dog washed platelets; conditions: 1 U/mL human thrombin, 1 μM human CatG or 1 mM RA-11mer
Text: as §1, §2, §3

washed platelets = experiment: Platelet aggregation of human washed platelets; conditions: for platelet aggregation, species comparison: humans: 1 U/mL human thrombin, 1 μM human CatG or 1 mM RA-11mer
Method: as §3
GYPGQV-NH2 (SEQ ID NO: 5), RALLLGWVPTR-NH2 (SEQ ID NO: 1), ALLLGWVPTR-NH2 (SEQ ID NO: 2), RALLLG-NH2 (SEQ ID NO: 4). Peptides were synthesized by BIOMATIK (Wilmington, DE, USA) at similar purities. All peptides were suspended in 50% DMSO and 50% ethanol. To measure platelet activation, washed platelets were stimulated with various concentrations of the peptide in the presence of CD41-APC, P-selectin (PE) and PAC-1 (FITC) for 15 minutes at 37° C. and then fixed with FACS Lysis Buffer. Samples were immediately run on a Cytoflex flow cytometer. In some experiments, platelets were stimulated with peptides and platelet aggregation performed as described above. Platelet calcium flux was induced by RALLLGWVPTR (2 mM; SEQ ID NO: 1), CatG (500 nM), ALLLGWVPTR (2 mM; SEQ ID NO: 2) or tyrodes buffer and monitored as described above.

“CatG: serine protease cathepsin G released by activated neutrophils” was tested, and the “platelet aggregation, species comparison: mice” value (mouse washed platelets) was “only induced platelet aggregation in humans and dogs”, the “CatG-induced calcium flux, R68E mutant compared with WT” value (PAR4-R68E; CatG 2.5 μM, P<0.001) was “significantly less calcium flux than WT” and the “CatG-induced calcium flux, S67E mutant compared with WT” value (PAR4-S67E; CatG 2.5 μM, P<0.001) was “significantly less calcium flux than WT”. The “platelet aggregation, species comparison: dogs” value (dog washed platelets) was “induced platelet aggregation; also recorded: not as responsive”, the “platelet aggregation, species comparison: humans” value (washed platelets) was “induced platelet aggregation” and the “potency as activator of PAR4, comparison” value (washed platelets; from platelet aggregation data) was “much less potent than the thrombin enzyme”. For the same substance, the “platelet aggregation induced by neutrophil serine protease” value (washed platelets; washed platelets, 400 nM protease) was “only protease to induce platelet aggregation”.
In the case of thrombin, the “platelet aggregation, species comparison: mice” value (mouse washed platelets) is reported as “induced platelet aggregation”, the “thrombin-induced calcium flux, R68E mutant compared with WT” value (PAR4-R68E; thrombin 1.5 U/mL) is reported as “None of the PAR4 mutants were significantly different than WT” and the “thrombin-induced calcium flux, S67E mutant compared with WT” value (PAR4-S67E; thrombin 1.5 U/mL) is reported as “None of the PAR4 mutants were significantly different than WT”. The “platelet aggregation, species comparison: dogs” value (dog washed platelets) was “induced platelet aggregation” and the “platelet aggregation, species comparison: humans” value (washed platelets) was “induced platelet aggregation”.
